Experimental data published in ChEMBL document CHEMBL3739345, “Design and synthesis of potent and selective inhibitors of BRD7 and BRD9 bromodomains” (Medchemcomm, 2015).
Active and inactive are the calls of the source. The calls are words filed in the database; no cut-off is given here.

Legend:
[1] = target: T1, Bromodomain-containing protein 9 (Homo sapiens) (UniProt Q9H8M2); assay: Binding affinity to human BRD9 assessed as change in melting temperature at 10 uM by differential scanning fluorimetry
T1 sequence (whole entry): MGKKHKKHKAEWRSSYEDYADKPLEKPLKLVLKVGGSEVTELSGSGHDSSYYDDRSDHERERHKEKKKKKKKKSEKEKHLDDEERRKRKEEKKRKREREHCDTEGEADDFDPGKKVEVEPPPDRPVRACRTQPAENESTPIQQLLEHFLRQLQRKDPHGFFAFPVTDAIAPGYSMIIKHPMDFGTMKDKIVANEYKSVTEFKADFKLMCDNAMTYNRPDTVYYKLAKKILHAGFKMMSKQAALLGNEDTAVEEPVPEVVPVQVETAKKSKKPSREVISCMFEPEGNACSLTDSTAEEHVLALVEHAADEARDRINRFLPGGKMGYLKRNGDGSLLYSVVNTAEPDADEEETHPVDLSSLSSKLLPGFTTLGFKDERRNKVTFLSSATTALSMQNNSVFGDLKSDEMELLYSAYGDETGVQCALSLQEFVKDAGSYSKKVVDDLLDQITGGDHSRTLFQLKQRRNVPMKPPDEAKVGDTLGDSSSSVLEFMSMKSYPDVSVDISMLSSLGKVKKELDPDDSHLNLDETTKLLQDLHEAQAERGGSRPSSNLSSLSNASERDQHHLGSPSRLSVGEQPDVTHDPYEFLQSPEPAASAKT

[2] = target: T2, Bromodomain-containing protein 9 (Homo sapiens, UniProt Q9H8M2); assay: Binding affinity to human BRD9 by isothermal titration calorimetry
T2 sequence (Q9H8M2 whole entry): T1 sequence (whole entry)

[3] = target: T3, Bromodomain-containing protein 4 (Homo sapiens, UniProt O60885); assay: Binding affinity to human BRD4 assessed as change in melting temperature at 10 uM by differential scanning fluorimetry
[4] = target: Bromodomain adjacent to zinc finger domain protein 2B (Homo sapiens, UniProt Q9UIF8); assay: Inhibition of human BAZ2B by alpha screen assay
[5] = target: T4, Bromodomain-containing protein 7 (Homo sapiens, UniProt Q9NPI1); assay: Binding affinity to human BRD7 by isothermal titration calorimetry
T4 sequence (Q9NPI1 whole entry): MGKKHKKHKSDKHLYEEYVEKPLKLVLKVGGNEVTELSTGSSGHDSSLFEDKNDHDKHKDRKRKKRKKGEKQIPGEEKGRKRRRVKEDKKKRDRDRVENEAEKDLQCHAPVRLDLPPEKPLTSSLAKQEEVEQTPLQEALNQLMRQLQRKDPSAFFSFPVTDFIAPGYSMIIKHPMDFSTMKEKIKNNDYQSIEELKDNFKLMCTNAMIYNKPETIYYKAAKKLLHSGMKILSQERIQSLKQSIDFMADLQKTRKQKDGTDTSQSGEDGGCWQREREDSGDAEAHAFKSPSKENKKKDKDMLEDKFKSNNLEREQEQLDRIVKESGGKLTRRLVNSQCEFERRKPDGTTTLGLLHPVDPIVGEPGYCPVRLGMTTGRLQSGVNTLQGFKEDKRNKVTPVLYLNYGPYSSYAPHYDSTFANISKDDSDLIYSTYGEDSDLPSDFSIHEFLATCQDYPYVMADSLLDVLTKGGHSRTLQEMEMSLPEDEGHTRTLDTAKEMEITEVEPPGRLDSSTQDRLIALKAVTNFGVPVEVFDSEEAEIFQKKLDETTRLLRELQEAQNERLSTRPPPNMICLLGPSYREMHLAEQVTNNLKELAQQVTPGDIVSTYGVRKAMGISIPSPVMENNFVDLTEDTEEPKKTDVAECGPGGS

[6] = target: T3, Bromodomain-containing protein 4; assay: Binding affinity to human BRD4 at 15 uM by isothermal titration calorimetry
[7] = target: T5, Bromodomain-containing protein 1 (Homo sapiens) (UniProt O95696); assay: Binding affinity to human BRD1 at 10 uM by differential scanning fluorimetry
T5 sequence (whole entry): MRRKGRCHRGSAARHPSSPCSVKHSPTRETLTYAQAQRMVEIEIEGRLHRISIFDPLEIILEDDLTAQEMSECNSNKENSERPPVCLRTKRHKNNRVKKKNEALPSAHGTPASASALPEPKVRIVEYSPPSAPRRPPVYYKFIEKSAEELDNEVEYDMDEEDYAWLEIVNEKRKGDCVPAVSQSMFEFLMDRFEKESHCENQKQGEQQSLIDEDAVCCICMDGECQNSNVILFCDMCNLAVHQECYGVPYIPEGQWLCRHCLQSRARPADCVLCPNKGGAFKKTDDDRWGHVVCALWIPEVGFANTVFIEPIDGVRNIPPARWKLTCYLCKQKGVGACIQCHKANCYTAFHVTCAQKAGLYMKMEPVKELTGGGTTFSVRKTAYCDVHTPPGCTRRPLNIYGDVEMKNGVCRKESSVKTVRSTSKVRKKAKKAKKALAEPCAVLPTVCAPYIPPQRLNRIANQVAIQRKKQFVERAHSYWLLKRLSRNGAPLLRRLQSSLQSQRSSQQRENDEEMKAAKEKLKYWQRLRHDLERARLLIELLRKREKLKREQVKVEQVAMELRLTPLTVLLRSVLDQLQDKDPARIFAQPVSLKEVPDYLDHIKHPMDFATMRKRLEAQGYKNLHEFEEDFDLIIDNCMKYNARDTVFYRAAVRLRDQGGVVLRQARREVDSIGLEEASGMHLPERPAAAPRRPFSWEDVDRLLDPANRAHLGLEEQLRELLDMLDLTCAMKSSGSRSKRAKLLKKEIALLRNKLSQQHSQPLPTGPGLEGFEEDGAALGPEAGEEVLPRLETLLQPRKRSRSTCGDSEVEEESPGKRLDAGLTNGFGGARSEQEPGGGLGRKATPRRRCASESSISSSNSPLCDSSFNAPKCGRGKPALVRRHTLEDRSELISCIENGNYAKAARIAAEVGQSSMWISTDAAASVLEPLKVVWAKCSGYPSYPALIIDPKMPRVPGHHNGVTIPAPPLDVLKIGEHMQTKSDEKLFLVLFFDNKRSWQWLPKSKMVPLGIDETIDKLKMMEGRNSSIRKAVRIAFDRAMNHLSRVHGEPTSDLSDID

[8] = target: Bromodomain-containing protein 2 (Homo sapiens) (UniProt P25440); assay: Binding affinity to human BRD2 at 10 uM by differential scanning fluorimetry
[9] = target: Histone acetyltransferase p300 (Homo sapiens) (UniProt Q09472); assay: Binding affinity to human p300 assessed as change in melting temperature at 10 uM by differential scanning fluorimetry
[10] = target: T1, Bromodomain-containing protein 9 (Homo sapiens); assay: Inhibition of human BRD9 expressed in U2OS cells assessed as inhibition of BRD9-chromatin association after 24 hrs by FRAP assay in presence of pan-HDAC inhibitor SAHA; assay type: cell-based

Sequence of Bromodomain-containing protein 2 (Homo sapiens) (P25440 whole entry, looked up): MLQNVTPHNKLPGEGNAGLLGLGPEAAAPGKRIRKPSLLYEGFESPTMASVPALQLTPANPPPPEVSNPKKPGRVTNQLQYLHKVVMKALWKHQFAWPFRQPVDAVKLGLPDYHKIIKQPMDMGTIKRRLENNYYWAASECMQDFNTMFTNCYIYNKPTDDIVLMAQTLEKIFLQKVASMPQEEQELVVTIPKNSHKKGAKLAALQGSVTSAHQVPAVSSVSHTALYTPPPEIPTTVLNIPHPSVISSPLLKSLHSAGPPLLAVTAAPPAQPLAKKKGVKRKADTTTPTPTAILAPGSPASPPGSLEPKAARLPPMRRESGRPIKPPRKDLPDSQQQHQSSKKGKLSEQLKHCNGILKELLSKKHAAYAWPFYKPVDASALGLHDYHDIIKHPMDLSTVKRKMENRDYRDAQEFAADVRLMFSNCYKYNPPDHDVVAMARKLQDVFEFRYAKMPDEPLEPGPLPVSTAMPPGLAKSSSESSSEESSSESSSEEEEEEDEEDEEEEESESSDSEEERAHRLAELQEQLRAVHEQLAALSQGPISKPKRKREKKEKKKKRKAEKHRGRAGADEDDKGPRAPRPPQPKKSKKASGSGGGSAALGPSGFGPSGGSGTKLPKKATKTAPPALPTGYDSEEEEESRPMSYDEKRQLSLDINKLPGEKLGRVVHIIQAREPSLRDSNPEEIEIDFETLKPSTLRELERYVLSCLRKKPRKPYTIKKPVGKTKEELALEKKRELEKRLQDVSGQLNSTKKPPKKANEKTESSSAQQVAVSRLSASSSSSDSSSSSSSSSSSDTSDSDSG
Sequence of Histone acetyltransferase p300 (Homo sapiens) (Q09472 whole entry): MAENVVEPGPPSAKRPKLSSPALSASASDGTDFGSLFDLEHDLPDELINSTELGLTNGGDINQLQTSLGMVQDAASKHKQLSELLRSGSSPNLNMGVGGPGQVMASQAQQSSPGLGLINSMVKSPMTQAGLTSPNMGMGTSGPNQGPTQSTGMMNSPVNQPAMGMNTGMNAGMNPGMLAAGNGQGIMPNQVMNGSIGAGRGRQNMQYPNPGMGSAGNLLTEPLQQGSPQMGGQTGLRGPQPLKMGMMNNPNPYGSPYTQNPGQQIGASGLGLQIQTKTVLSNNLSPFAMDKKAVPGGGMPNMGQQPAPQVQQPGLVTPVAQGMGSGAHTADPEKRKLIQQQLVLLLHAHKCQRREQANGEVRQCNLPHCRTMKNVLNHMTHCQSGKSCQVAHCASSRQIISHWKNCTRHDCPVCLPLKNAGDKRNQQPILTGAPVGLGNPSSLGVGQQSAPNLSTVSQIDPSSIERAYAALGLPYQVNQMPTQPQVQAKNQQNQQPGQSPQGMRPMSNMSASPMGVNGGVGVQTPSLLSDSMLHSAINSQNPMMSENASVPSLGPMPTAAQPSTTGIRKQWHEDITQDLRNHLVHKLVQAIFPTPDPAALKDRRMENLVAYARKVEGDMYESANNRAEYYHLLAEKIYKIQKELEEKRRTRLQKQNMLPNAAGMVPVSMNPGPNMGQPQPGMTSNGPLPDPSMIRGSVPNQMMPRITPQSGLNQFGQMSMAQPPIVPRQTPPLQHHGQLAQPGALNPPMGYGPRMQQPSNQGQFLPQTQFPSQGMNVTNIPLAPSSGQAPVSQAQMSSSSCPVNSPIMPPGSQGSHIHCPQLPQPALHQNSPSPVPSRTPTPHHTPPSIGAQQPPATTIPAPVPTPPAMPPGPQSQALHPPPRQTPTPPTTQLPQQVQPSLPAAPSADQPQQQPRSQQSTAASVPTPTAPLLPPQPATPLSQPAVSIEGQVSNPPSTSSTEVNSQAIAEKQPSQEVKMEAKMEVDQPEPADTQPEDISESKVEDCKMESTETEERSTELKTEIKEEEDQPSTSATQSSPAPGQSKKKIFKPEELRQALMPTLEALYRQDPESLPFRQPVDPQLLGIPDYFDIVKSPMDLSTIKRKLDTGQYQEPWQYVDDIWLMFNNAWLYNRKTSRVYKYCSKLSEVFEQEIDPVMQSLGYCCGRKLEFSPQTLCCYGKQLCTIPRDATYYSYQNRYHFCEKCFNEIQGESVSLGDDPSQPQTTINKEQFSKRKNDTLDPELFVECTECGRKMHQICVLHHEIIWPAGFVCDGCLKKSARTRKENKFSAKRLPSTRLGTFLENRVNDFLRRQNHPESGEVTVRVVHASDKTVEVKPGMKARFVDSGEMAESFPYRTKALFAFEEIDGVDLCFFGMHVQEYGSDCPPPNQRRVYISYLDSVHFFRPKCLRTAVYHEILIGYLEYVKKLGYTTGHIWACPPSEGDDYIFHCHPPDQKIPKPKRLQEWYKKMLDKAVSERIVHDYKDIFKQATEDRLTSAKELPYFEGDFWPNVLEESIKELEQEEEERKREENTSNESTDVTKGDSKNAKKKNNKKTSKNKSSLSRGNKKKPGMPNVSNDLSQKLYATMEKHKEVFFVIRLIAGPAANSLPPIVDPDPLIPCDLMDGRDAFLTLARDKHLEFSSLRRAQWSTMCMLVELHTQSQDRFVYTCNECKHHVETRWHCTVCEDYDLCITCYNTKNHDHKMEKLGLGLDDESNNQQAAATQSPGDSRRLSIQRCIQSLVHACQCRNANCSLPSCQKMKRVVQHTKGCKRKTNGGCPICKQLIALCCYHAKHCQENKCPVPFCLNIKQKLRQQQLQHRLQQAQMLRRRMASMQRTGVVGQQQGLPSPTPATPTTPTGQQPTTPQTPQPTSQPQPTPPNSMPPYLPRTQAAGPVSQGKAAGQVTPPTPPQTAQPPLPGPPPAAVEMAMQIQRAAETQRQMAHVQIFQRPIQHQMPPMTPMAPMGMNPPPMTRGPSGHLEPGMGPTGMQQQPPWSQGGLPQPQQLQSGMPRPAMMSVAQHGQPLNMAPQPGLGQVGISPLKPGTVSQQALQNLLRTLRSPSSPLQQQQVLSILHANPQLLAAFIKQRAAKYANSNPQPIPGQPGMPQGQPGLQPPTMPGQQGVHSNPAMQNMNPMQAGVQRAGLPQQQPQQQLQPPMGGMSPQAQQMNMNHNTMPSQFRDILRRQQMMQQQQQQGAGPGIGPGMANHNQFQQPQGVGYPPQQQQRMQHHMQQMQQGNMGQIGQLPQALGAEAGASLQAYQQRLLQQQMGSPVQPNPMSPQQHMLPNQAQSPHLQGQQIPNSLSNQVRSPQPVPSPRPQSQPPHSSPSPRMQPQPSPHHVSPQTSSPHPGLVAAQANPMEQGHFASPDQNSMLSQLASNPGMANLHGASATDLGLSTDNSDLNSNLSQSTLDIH

ΔTm [1]: 4.5 °C
Kd [2]: 68 nM
ΔTm [3]: 1.3 °C
IC50 [4]: > 100000 nM
Kd [5]: 368 nM
Activity [6]: inactive
Activity [7]: Active
Activity [8]: Active
ΔTm [9]: 2 °C
inhibition [10]: Dose-dependent effect
SMILES: CC(=O)c1cc(-c2cccc3nccn23)c2cc(N3CCOCC3)ccn12
